The text below walks through data of US20260137703A1, “2-AMINO-PYRIDO[2,3-D]PYRIMIDIN-7(8H)-ONE AND 7-AMINO-1-PYRIMIDO[4,5-D]PYRIMIDIN-2(1 H)-ONE DERIVATIVES AS EGFR INHIBITORS FOR THE TREATMENT OF CANCER” (Cancer Research Technology Limited, priority 2022, published 2026).

Chain of CtermHisTag-mEGFR Wild type (P00533 whole entry): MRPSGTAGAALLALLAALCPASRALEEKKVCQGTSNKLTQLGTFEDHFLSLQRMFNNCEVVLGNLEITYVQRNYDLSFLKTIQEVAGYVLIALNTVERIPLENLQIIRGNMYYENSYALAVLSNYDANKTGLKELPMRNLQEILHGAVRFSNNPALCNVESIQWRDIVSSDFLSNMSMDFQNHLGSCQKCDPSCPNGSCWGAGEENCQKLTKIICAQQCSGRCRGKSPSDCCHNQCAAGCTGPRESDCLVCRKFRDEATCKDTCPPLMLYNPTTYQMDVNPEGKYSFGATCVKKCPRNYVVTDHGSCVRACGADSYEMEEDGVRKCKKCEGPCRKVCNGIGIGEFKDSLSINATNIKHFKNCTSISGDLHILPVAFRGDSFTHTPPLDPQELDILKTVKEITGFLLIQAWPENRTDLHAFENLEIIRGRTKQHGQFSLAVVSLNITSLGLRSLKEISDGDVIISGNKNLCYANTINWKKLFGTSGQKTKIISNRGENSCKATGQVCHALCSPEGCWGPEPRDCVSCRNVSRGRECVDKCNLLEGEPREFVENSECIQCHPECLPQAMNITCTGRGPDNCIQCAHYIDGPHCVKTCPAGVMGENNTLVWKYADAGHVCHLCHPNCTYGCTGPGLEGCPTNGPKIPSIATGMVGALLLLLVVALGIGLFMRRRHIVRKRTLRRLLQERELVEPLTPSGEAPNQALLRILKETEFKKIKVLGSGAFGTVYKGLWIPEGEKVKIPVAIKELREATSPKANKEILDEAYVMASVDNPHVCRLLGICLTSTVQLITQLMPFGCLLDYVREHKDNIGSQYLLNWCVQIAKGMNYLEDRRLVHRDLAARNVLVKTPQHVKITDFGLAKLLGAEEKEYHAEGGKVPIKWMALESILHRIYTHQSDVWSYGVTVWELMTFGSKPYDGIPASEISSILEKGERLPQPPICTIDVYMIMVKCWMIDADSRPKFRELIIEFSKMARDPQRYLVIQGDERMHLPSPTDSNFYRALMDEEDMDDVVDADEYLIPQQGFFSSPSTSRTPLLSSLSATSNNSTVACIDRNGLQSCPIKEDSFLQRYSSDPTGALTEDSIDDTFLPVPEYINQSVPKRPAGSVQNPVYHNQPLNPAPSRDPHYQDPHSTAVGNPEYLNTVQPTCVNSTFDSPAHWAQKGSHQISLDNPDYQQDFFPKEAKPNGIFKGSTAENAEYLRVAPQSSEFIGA

The test addresses CtermHisTag-mEGFR Wild type (Homo sapiens, UniProt P00533). The test is described as follows: biochemical.
Turning to `C=CC(=O)Nc1cc(=O)n(-c2ccccc2)c2nc(Nc3ccccc3OC)ncc12` [Example 2, N-(2-((2-Methoxyphenyl)amino)-7-oxo-8-phenyl-7,8-dihydropyrido[2,3-d]pyrimidin-5-yl)acrylamide], the IC50 (in general, the point on the concentration scale where inhibition reaches its midpoint) was over 10 µM. For `C#Cc1nc(=O)n(-c2ccccc2)c2nc(Nc3ccccc3OC)ncc12` [Example 4, 4-Ethynyl-7-[(2-methoxyphenyl)amino]-1-phenylpyrimido[4,5-d][1,3]diazin-2-one] the value was under 1 µM; for `C#Cc1cc(=O)n(-c2ccccc2)c2nc(Nc3ccccc3)ncc12` [Example 5], 1 to 10 µM; for `C#Cc1cc(=O)n(-c2ccccc2)c2nc(Nc3ccc(OCCN(C)C)cc3)ncc12` [Example 13, 2-({4-[2-(Dimethylamino)ethoxy]phenyl}amino)-5-ethynyl-8-phenylpyrido[2,3-d]pyrimidin-7-one], under 1 µM. For `C#Cc1cc(=O)n(-c2ccccc2)c2nc(Nc3ccc(N4CCOCC4)cc3OC)ncc12` [Example 35, 5-Ethynyl-2-((2-methoxy-4-morpholinophenyl)amino)-8-phenylpyrido[2,3-d]pyrimidin-7(8H)-one] the value was under 1 µM; for `C#Cc1cc(=O)n(-c2ccccc2)c2nc(Nc3ccccc3CO)ncc12` [Example 41, 5-Ethynyl-2-{[2-(hydroxymethyl)phenyl]amino}-8-phenylpyrido[2,3-d]pyrimidin-7-one], over 10 µM. On to `C#Cc1cc(=O)n(C)c2nc(Nc3ccc(N(C)CCN(C)C)cc3OC)ncc12` [Example 42, 2-[(4-{[2-(Dimethylamino)ethyl](methyl)amino}-2-methoxyphenyl)amino]-5-ethynyl-8-methylpyrido[2,3-d]pyrimidin-7-one], for which the IC50 lay in the range of 1 to 10 µM. For `C#Cc1cc(=O)n(C)c2nc(Nc3ccccc3OC)ncc12` [Example 48, 5-Ethynyl-2-[(2-methoxyphenyl)amino]-8-methylpyrido[2,3-d]pyrimidin-7-one] the value was over 10 µM; for `C#Cc1cc(=O)n(-c2cccc(NC(C)=O)c2)c2nc(Nc3ccccc3OC)ncc12` [Example 56, N-(3-(5-Ethynyl-2-((2-methoxyphenyl)amino)-7-oxopyrido[2,3-d]pyrimidin-8(7H)-yl)phenyl)acetamide], over 10 µM; for `C#Cc1cc(=O)n(-c2cccc(NS(C)(=O)=O)c2)c2nc(Nc3ccccc3OC)ncc12` [Example 57, N-(3-(5-Ethynyl-2-((2-methoxyphenyl)amino)-7-oxopyrido[2,3-d]pyrimidin-8(7H)-yl)phenyl)methanesulfonamide], over 10 µM.

As for `C#Cc1cc(=O)n(-c2cccc(NS(=O)(=O)C3CC3)c2)c2nc(Nc3ccccc3OC)ncc12` [Example 58, N-(3-(5-Ethynyl-2-((2-methoxyphenyl)amino)-7-oxopyrido[2,3-d]pyrimidin-8(7H)-yl)phenyl)cyclopropanesulfonamide], the IC50 is over 10 µM. As for `C#Cc1cc(=O)n(C2CCCC2)c2nc(Nc3ccccc3OC)ncc12` [Example 74, 8-Cyclopentyl-5-ethynyl-2-((2-methoxyphenyl)amino)pyrido[2,3-d]pyrimidin-7(8H)-one], the figure is over 10 µM; as for `C#Cc1cc(=O)n(-c2ccc(OC)cc2OC)c2nc(Nc3ccccc3OC)ncc12` [Example 75, 8-(2,4-Dimethoxyphenyl)-5-ethynyl-2-[(2-methoxyphenyl)amino]pyrido[2,3-d]pyrimidin-7-one], over 10 µM; as for `C#Cc1cc(=O)n(C(C)C)c2nc(Nc3ccccc3OC)ncc12` [Example 83, 5-Ethynyl-8-isopropyl-2-[(2-methoxyphenyl)amino]pyrido[2,3-d]pyrimidin-7-one], over 10 µM. For `C#Cc1cc(=O)n(-c2ccc(OC)cc2)c2nc(Nc3ccccc3OC)ncc12` [Example 84, 5-ethynyl-8-(4-methoxyphenyl)-2-[(2-methoxyphenyl)amino]pyrido[2,3-d]pyrimidin-7-one] the value was over 10 µM; for `C#Cc1cc(=O)n(-c2cccc(NC(=O)C=C)c2)c2nc(Nc3ccccc3OC)ncc12` [Example 85, N-(3-(5-Ethynyl-2-((2-methoxyphenyl)amino)-7-oxopyrido[2,3-d]pyrimidin-8(7H)-yl)phenyl)acrylamide], 1 to 10 µM; for `C#Cc1c(-c2ccccc2)c(=O)n(C)c2nc(Nc3ccc(N(C)CCN(C)C)cc3OC)ncc12` [Example 121, 2-[(4-[[2-(dimethylamino)ethyl](methyl)amino]-2-methoxyphenyl)amino]-5-ethynyl-8-methyl-6-phenylpyrido[2,3-d]pyrimidin-7-one], 1 to 10 µM. For `C#Cc1c(-c2ccccc2Cl)c(=O)n(C)c2nc(Nc3ccc(N(C)CCN(C)C)cc3OC)ncc12` [Example 122, 6-(2-chlorophenyl)-2-[(4-[[2-(dimethylamino)ethyl](methyl)amino]-2-methoxyphenyl)amino]-5-ethynyl-8-methylpyrido[2,3-d]pyrimidin-7-one] the value was under 1 µM; for `C#Cc1c(-c2ccccc2Cl)c(=O)n(C)c2nc(Nc3ccccc3OC)ncc12` [Example 123, 6-(2-chlorophenyl)-5-ethynyl-2-[(2-methoxyphenyl)amino]-8-methylpyrido[2,3-d]pyrimidin-7-one], over 10 µM; for `C#Cc1c(-c2ccccc2Cl)c(=O)n(C)c2nc(Nc3ccccc3)ncc12` [Example 124, 6-(2-chlorophenyl)-5-ethynyl-8-methyl-2-(phenylamino)pyrido[2,3-d]pyrimidin-7-one], over 10 µM. On to `C#Cc1c(-c2ccccc2Cl)c(=O)n(C)c2nc(NCCCCN3CCN(C)CC3)ncc12` [Example 130, 6-(2-chlorophenyl)-5-ethynyl-8-methyl-2-{[4-(4-methylpiperazin-1-yl)butyl]amino}pyrido[2,3-d]pyrimidin-7-one], for which the IC50 is over 10 µM. As for `C#Cc1c(-c2ccccc2Cl)c(=O)n(C)c2nc(Nc3ccc(N(C)CCN(C)C)c(C)c3)ncc12` [Example 133, 6-(2-chlorophenyl)-2-[(4-{[2-(dimethylamino)ethyl](methyl)amino}-3-methylphenyl)amino]-5-ethynyl-8-methylpyrido[2,3-d]pyrimidin-7-one], the figure is under 1 µM; as for `C#Cc1c(-c2ccccc2OC)c(=O)n(C)c2nc(Nc3ccc(N(C)CCN(C)C)cc3)ncc12` [Example 138, 2-[(4-{[2-(dimethylamino)ethyl](methyl)amino}phenyl)amino]-5-ethynyl-6-(2-methoxyphenyl)-8-methylpyrido [2,3-d]pyrimidin-7-one], 1 to 10 µM.

With `C#Cc1c(Cc2ccccc2)c(=O)n(C)c2nc(Nc3ccc(N(C)CCN(C)C)cc3OC)ncc12` [Example 140, 6-benzyl-2-[(4-[[2-(dimethylamino)ethyl](methyl)amino]-2-methoxyphenyl)amino]-5-ethynyl-8-methylpyrido[2,3-d]pyrimidin-7-one], the IC50 lay within 1 to 10 µM. For the compound `C#Cc1c(C(=O)NC)c(=O)n(-c2ccccc2)c2nc(Nc3ccccc3OC)ncc12` [Example 141, 5-ethynyl-2-[(2-methoxyphenyl)amino]-N-methyl-7-oxo-8-phenylpyrido[2,3-d]pyrimidine-6-carboxamide], the half-inhibitory concentration (IC50) was over 10 µM. For `C#Cc1c(N)c(=O)n(-c2ccccc2)c2nc(Nc3ccccc3OC)ncc12` [Example 142, 6-amino-5-ethynyl-2-[(2-methoxyphenyl)amino]-8-phenylpyrido[2,3-d]pyrimidin-7-one] the value was over 10 µM; for `C#Cc1c(NC(C)=O)c(=O)n(-c2ccccc2)c2nc(Nc3ccccc3OC)ncc12` [Example 143, N-[5-ethynyl-2-[(2-methoxyphenyl)amino]-7-oxo-8-phenylpyrido[2,3-d]pyrimidin-6-yl]acetamide], over 10 µM; for `C#Cc1c(C#N)c(=O)n(-c2ccccc2)c2nc(Nc3ccccc3OC)ncc12` [Example 145, 5-ethynyl-2-[(2-methoxyphenyl)amino]-7-oxo-8-phenylpyrido[2,3-d]pyrimidine-6-carbonitrile], over 10 µM. Consider `C#Cc1c(C(=O)N(C)C)c(=O)n(-c2ccccc2)c2nc(Nc3ccccc3OC)ncc12` [Example 146, 5-ethynyl-2-[(2-methoxyphenyl)amino]-N,N-dimethyl-7-oxo-8-phenylpyrido[2,3-d]pyrimidine-6-carboxamide], for which the IC50 was over 10 µM. As for `C#Cc1c(N(C)C)c(=O)n(-c2ccccc2)c2nc(Nc3ccccc3OC)ncc12` [Example 147, 6-(dimethylamino)-5-ethynyl-2-[(2-methoxyphenyl)amino]-8-phenylpyrido[2,3-d]pyrimidin-7-one], the figure is over 10 µM. For `C=Cc1cc(=O)n(-c2ccccc2)c2nc(Nc3ccccc3OC)ncc12` [Example 152, 5-ethenyl-2-[(2-methoxyphenyl)amino]-8-phenylpyrido[2,3-d]pyrimidin-7-one] the value was over 10 µM; for `C=Cc1cc(=O)n(-c2ccccc2OC)c2nc(Nc3ccccc3OC)ncc12` [Example 153, 8-(2-Methoxyphenyl)-2-((2-methoxyphenyl)amino)-5-vinylpyrido[2,3-d]pyrimidin-7(8H)-one], over 10 µM. As for `C=Cc1cc(=O)n(-c2ccc(OC)cc2OC)c2nc(Nc3ccccc3OC)ncc12` [Example 154, 8-(2,4-dimethoxyphenyl)-5-ethenyl-2-[(2-methoxyphenyl)amino]pyrido[2,3-d]pyrimidin-7-one], the figure is over 10 µM; as for `C=Cc1c(C#N)c(=O)n(-c2ccccc2)c2nc(Nc3ccccc3OC)ncc12` [Example 159, 5-ethenyl-2-[(2-methoxyphenyl)amino]-7-oxo-8-phenylpyrido[2,3-d]pyrimidine-6-carbonitrile], 1 to 10 µM; as for `C=Cc1c(C#N)c(=O)n(-c2ccc(OC)cc2OC)c2nc(Nc3ccccc3OC)ncc12` [Example 160, 8-(2,4-dimethoxyphenyl)-2-((2-methoxyphenyl)amino)-7-oxo-5-vinyl-7,8-dihydropyrido[2,3-d]pyrimidine-6-carbonitrile], 1 to 10 µM. `C=Cc1c(-c2ccccc2Cl)c(=O)n(C)c2nc(Nc3ccccc3OC)ncc12` [Example 161, 6-(2-chlorophenyl)-5-ethenyl-2-[(2-methoxyphenyl)amino]-8-methylpyrido[2,3-d]pyrimidin-7-one]: the IC50 was over 10 µM.
